Data as given in ChEMBL document CHEMBL1201862, “PubChem BioAssay data set” (2004).
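Briefly, cells in 96-well plates were exposed to five compound concentrations for 48 h, and endpoints were estimated by linear interpolation. Here, GI50 denotes the concentration required for 50% inhibition of growth.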 Calls of active or inactive are those of the source. Cut-off read from the data, not from the text of the source: active = GI50 up to about 1.1 µM and inactive = higher. Residues, ends and D or L forms follow the SMILES beside them. *: point of attachment. Fmoc = O=C(OCC1c2ccccc2-c2ccccc21)*; Boc = CC(C)(C)OC(=O)*

How the values were obtained:
Experiment in all cases: DTP human tumour cell line panel, 48 h
[1] = system: HCC 2998
[2] = system: NCI-H460
[3] = system: SR
[4] = system: UACC-257
[5] = system: PC-3
[6] = system: IGROV-1
[7] = system: 786-0
[8] = system: MDA-N
[9] = system: SF-295
[10] = system: HT-29
[11] = system: SNB-19
[12] = system: HOP-92
[13] = system: SK-MEL-5
[14] = system: SK-MEL-2
[15] = system: TK-10
[16] = system: RXF 393
[17] = system: KM12
[18] = system: HL-60
[19] = system: UACC-62
[20] = system: M14

Measured: GI50

CNC1C(OC2C(OC3C(O)C(O)C(O)C(O)C3O)OC(C)C2(O)CO)OC(CO)C(O)C1O.N=C(N)N.NC(=O)O (centres undefined)
inactive: [1] > 100 µM | [2] > 100 µM | [3] > 100 µM | [4] > 100 µM | [5] > 100 µM | [6] > 100 µM | [7] > 100 µM | [8] > 100 µM | [9] > 100 µM | [10] > 100 µM | [11] > 100 µM | [12] > 100 µM | [13] > 100 µM | [14] > 100 µM | [15] > 100 µM | [16] > 100 µM | [17] > 100 µM | [18] > 100 µM | [19] > 100 µM | [20] > 100 µM

COC(=O)/C(=C(\C)NC(C)=O)c1c(C(=O)OC)[nH]c2ccccc12
inactive: [1] > 100 µM | [2] > 100 µM | [3] > 100 µM | [4] > 100 µM | [5] > 100 µM | [6] > 100 µM | [7] > 100 µM | [8] > 100 µM | [9] > 100 µM | [10] > 100 µM | [11] > 100 µM | [12] > 100 µM | [13] > 100 µM | [14] > 100 µM | [15] > 100 µM | [16] > 100 µM | [17] > 100 µM | [18] > 100 µM | [19] > 100 µM | [20] > 100 µM

CC(C)(C)OC(=O)NCCCCC(NC(=O)C(Cc1c[nH]c2ccccc12)NC(=O)OCC1c2ccccc2-c2ccccc21)C(=O)N1CCCC1C(=O)NCC(N)=O (centres undefined) (Fmoc-WK(Boc)PG-NH2; configuration not given here)
inactive: [1] > 100 µM | [2] > 100 µM | [3] > 100 µM | [4] > 100 µM | [5] > 100 µM | [6] > 100 µM | [7] > 100 µM | [8] > 100 µM | [9] 60.3 µM | [10] > 100 µM | [11] > 100 µM | [12] > 100 µM | [13] > 100 µM | [14] > 100 µM | [15] > 100 µM | [16] > 100 µM | [17] > 100 µM | [18] > 100 µM | [19] > 100 µM | [20] 60.5 µM

C[C@]12CC[C@H]3[C@@H](CCC4=CC(=O)CC[C@@H]43)[C@@H]1CC[C@]2(O)C(N)=O
inactive: [1] > 100 µM | [2] > 100 µM | [3] > 100 µM | [4] > 100 µM | [5] > 100 µM | [6] > 100 µM | [7] > 100 µM | [8] > 100 µM | [9] > 100 µM | [10] > 100 µM | [11] > 100 µM | [12] > 100 µM | [13] > 100 µM | [14] > 100 µM | [15] > 100 µM | [16] > 100 µM | [17] > 100 µM | [18] > 100 µM | [19] > 100 µM | [20] > 100 µM

O=C1c2ccccc2-c2nnc3c(c21)Cc1ccccc1C3
inactive: [1] > 10 µM | [2] > 10 µM | [3] > 10 µM | [5] 9.53 µM | [6] > 10 µM | [7] > 10 µM | [8] > 10 µM | [9] > 10 µM | [10] > 10 µM | [11] > 10 µM | [12] > 10 µM | [13] > 10 µM | [14] > 10 µM | [15] > 10 µM | [16] > 10 µM | [17] > 10 µM | [18] > 10 µM | [19] > 10 µM | [20] > 10 µM

CC(NNC(=O)c1ccncc1)c1ccc(Cl)c(Cl)c1 (centres undefined)
inactive: [1] > 100 µM | [2] > 100 µM | [3] 60.8 µM | [4] > 100 µM | [5] 71.3 µM | [6] > 100 µM | [7] > 100 µM | [8] 95.3 µM | [9] > 100 µM | [10] > 100 µM | [11] > 100 µM | [12] > 100 µM | [13] > 100 µM | [14] > 100 µM | [15] > 100 µM | [16] > 100 µM | [17] > 100 µM | [18] 34.8 µM | [19] > 100 µM | [20] 67.9 µM

CC1=NN(C(=O)CC(=O)Nc2ccc(Cl)cc2)C(=O)C1/N=N\c1ccc(S(=O)(=O)c2ccc(/N=N/C3C(=O)N(C(=O)CC(=O)Nc4ccc(Cl)cc4)N=C3C)cc2)cc1 (centres undefined)
inactive: [1] > 100 µM | [2] > 100 µM | [3] > 100 µM | [4] > 100 µM | [5] > 100 µM | [6] > 100 µM | [7] > 100 µM | [8] > 100 µM | [9] > 100 µM | [10] > 100 µM | [11] 61.5 µM | [12] > 100 µM | [13] 95.7 µM | [14] 51.9 µM | [15] 35.7 µM | [16] 41.5 µM | [17] > 100 µM | [18] > 100 µM | [19] > 100 µM | [20] 65.2 µM
